In BindingDB's records for doi:10.1021/jm000160l (University of Maryland, 2000):

Assays:
[1] = molecular target: Glyoxalase I (Saccharomyces cerevisiae) (UniProt P50107); experiment: Binding affinity on yeast glyoxalase I (GlxI) was determined
[2] = molecular target: Glyoxalase I (Pseudomonas putida); experiment: Binding affinity on Pseudomonas putida glyoxalase I (GlxI) was determined

Chain of Glyoxalase I (Saccharomyces cerevisiae) (P50107 whole entry, looked up): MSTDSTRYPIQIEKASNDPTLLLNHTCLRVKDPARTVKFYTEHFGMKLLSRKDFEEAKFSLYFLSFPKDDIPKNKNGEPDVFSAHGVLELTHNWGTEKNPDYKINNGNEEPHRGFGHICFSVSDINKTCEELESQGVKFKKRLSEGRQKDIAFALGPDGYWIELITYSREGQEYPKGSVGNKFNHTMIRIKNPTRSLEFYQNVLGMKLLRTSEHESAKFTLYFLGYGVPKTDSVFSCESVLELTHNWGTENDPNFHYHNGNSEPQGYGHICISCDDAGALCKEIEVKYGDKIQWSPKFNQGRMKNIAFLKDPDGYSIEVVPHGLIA

Compound `CN(O)C(=O)SC[C@H](NC(=O)CC[C@H](N)C(=O)O)C(=O)NCC(=O)O` [S-(N-methyl-N-hydroxycarbamoyl)glutathione] has a Ki [1] of 68 µM and a Ki [2] of 86 µM.
